This experiment has as its target T1, Androgen Receptor (AR) protein (Homo sapiens, UniProt P10275, T878A).
T1 construct: endogenous in cells; host or cells: LNCaP
Kind of experiment: Androgen Receptor (AR) protein degradation assay in LNCaP cells, western blotting. In kind it is cell-based. Particulars: 20 h; for inhibition at 0.01 µM: 0.01 μM compound; for inhibition at 0.1 µM: 0.1 μM compound; for inhibition at 1 µM: 1 μM compound; for inhibition at 10 µM: 10 μM compound. An outline of the steps: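 AR protein level was detected by western blot (ECL) against GAPDH or β-actin controls, with 8 μg lysate protein loaded per lane after BCA quantification. Lysates came from LNCaP cells exposed to test compound for 20 h, following 3 days of growth in RPMI/10% FBS.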
A general note: In western blotting, separated proteins are transferred to a membrane and probed.

The term inhibition denotes the change of the read-out against control, counted positive when it falls.

T1 sequence (P10275 whole entry T878A): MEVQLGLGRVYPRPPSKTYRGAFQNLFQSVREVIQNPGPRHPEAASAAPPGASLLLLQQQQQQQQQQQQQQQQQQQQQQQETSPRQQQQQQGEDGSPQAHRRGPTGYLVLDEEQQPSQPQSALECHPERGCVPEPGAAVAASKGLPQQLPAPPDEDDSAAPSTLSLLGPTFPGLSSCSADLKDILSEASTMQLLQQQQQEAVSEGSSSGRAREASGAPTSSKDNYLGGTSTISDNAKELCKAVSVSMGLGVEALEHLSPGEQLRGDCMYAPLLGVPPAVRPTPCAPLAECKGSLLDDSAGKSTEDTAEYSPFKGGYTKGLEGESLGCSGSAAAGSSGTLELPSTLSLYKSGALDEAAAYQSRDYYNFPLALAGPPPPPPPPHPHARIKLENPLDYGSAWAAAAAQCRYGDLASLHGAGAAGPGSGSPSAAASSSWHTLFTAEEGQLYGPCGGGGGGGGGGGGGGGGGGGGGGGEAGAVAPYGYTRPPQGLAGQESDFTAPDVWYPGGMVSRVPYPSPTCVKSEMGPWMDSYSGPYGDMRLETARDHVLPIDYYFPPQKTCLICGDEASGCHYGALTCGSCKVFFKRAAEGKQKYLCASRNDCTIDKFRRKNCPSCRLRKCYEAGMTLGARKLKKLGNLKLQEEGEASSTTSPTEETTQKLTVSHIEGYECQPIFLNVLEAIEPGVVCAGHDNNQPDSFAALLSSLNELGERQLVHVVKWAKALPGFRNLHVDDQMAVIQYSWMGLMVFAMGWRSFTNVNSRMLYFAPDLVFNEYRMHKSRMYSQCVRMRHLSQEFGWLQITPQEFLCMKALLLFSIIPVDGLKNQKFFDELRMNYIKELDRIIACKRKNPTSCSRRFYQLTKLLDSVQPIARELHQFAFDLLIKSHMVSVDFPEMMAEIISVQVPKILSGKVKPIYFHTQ
T1 sequence (Q96SW2 whole entry partner): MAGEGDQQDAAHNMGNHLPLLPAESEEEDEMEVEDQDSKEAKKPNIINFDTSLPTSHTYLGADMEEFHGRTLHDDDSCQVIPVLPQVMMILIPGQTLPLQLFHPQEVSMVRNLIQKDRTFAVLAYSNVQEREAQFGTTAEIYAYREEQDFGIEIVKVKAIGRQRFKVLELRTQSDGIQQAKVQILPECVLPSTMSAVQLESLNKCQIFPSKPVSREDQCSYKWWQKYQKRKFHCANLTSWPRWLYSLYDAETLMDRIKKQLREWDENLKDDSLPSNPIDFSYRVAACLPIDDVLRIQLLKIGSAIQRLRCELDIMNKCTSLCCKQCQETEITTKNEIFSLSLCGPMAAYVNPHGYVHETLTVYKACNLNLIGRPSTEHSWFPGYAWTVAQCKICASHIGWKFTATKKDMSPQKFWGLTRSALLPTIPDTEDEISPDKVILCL

Turning to `C[C@@H]1CN(CC2CCN(c3ccc4c(c3)C(=O)N(C3CCC(=O)NC3=O)C4=O)CC2)CCN1CC1CCN(c2ccc(NC(=O)C3CCN(c4ccc(C#N)c(C(F)(F)F)c4)CC3)nc2)CC1` (stereo partly drawn) [Example 23, 1-(4-cyano-3-(trifluoromethyl)phenyl)-N-(5-(4-(((2R)-4-((1-(2-(2,6-dioxopiperidin-3-yl)-1,3-dioxoisoindolin-5-yl)piperidin-4-yl)methyl)-2-methylpiperazin-1-yl)methyl)piperidin-1-yl)pyridin-2-yl)piperidine-4-carboxamide], the inhibition at 0.01 µM turned out to be 69%, the inhibition at 0.1 µM came to 98% and the inhibition at 1 µM turned out to be 97%.
With `N#Cc1ccc(N2CCC(C(=O)Nc3ccc(N4CC(CN5CCN(C[C@H]6CCN(c7ccc8c(c7)C(=O)N(C7CCC(=O)NC7=O)C8=O)C6)CC5)C4)cn3)CC2)cc1C(F)(F)F` (stereo partly drawn) [Example 28, 1-(4-cyano-3-(trifluoromethyl)phenyl)-N-(5-(3-((4-(((3R)-1-(2-(2,6-dioxopiperidin-3-yl)-1,3-dioxoisoindolin-5-yl)pyrrolidin-3-yl)methyl)piperazin-1-yl)methyl)azetidin-1-yl)pyridin-2-yl)piperidine-4-carboxamide], the inhibition at 0.01 µM was determined as 82%, the inhibition at 0.1 µM worked out at 96% and the inhibition at 1 µM came out at 95%.
Take `N#Cc1ccc(N2CCC(C(=O)Nc3ccc(N4CCC(OCCN5CCN(c6ccc7c(c6)C(=O)N(C6CCC(=O)NC6=O)C7=O)CC5)CC4)cn3)CC2)cc1Cl` (centres unmarked) [Example 151, 1-(3-chloro-4-cyanophenyl)-N-(5-(4-(2-(4-(2-(2,6-dioxopiperidin-3-yl)-1,3-dioxoisoindolin-5-yl)piperazin-1-yl)ethoxy)piperidin-1-yl)pyridin-2-yl)piperidine-4-carboxamide]: the inhibition at 0.01 µM was -14%, the inhibition at 0.1 µM was 76% and the inhibition at 1 µM is 92%.
In the case of `N#Cc1ccc(N2CCC(C(=O)Nc3ccc(N4CCC(CN5CCN(C[C@H]6CCN(c7ccc8c(c7)C(=O)N(C7CCC(=O)NC7=O)C8=O)C6)CC5)CC4)cn3)CC2)cc1C(F)(F)F` (stereo partly drawn) [Example 14, 1-(4-cyano-3-(trifluoromethyl)phenyl)-N-(5-(4-((4-(((3R)-1-(2-(2,6-dioxopiperidin-3-yl)-1,3-dioxoisoindolin-5-yl)pyrrolidin-3-yl)methyl)piperazin-1-yl)methyl)piperidin-1-yl)pyridin-2-yl)piperidine-4-carboxamide], the inhibition at 0.01 µM is 72%, the inhibition at 0.1 µM stood at 98% and the inhibition at 1 µM stood at 97%.
Take `C[C@@H]1CN(CC2CCN(c3ccc(NC(=O)C4CCN(c5ccc(C#N)c(C(F)(F)F)c5)CC4)nc3)CC2)CCN1CC1CCN(c2ccc3c(c2)C(=O)N(C2CCC(=O)NC2=O)C3=O)CC1` (stereo partly drawn) [Example 25, 1-(4-cyano-3-(trifluoromethyl)phenyl)-N-(5-(4-(((3R)-4-((1-(2-(2,6-dioxopiperidin-3-yl)-1,3-dioxoisoindolin-5-yl)piperidin-4-yl)methyl)-3-methylpiperazin-1-yl)methyl)piperidin-1-yl)pyridin-2-yl)piperidine-4-carboxamide]: the inhibition at 0.01 µM amounted to 73%, the inhibition at 0.1 µM worked out at 98% and the inhibition at 1 µM came to 98%.
As for `N#Cc1ccc(N2CCC(C(=O)Nc3ccc(OCCN4CCN(CC5CCN(c6ccc7c(c6)C(=O)N(C6CCC(=O)NC6=O)C7=O)CC5)CC4)cn3)CC2)cc1C(F)(F)F` (centres unmarked) [Example 168, 1-(4-cyano-3-(trifluoromethyl)phenyl)-N-(5-(2-(4-((1-(2-(2,6-dioxopiperidin-3-yl)-1,3-dioxoisoindolin-5-yl)piperidin-4-yl)methyl)piperazin-1-yl)ethoxy)pyridin-2-yl)piperidine-4-carboxamide], the inhibition at 0.01 µM came out at 73%, the inhibition at 0.1 µM was determined as 97% and the inhibition at 1 µM was 99%.
The matching figures for `N#Cc1ccc(N2CCC(C(=O)Nc3ccc(N4CCC(CN5CCN(CC6CCN(c7ccc(C(=O)NC8CCC(=O)NC8=O)nc7)CC6)CC5)CC4)cn3)CC2)cc1C(F)(F)F` (centres unmarked) [Example 106, 5-(4-((4-((1-(6-(1-(4-cyano-3-(trifluoromethyl)phenyl)piperidine-4-carboxamido)pyridin-3-yl)piperidin-4-yl)methyl)piperazin-1-yl)methyl)piperidin-1-yl)-N-(2,6-dioxopiperidin-3-yl)picolinamide]: 32%, 86% and 96%.
As to `N#Cc1ccc(N2CCC(C(=O)Nc3ccc(N4CCN(CCCCCOc5ccc6c(c5)C(=O)N(C5CCC(=O)NC5=O)C6=O)CC4)cn3)CC2)cc1C(F)(F)F` (centres unmarked) [Example 113, 1-(4-cyano-3-(trifluoromethyl)phenyl)-N-(5-(4-(5-((2-(2,6-dioxopiperidin-3-yl)-1,3-dioxoisoindolin-5-yl)oxy)pentyl)piperazin-1-yl)pyridin-2-yl)piperidine-4-carboxamide], the inhibition at 0.01 µM is 55%, the inhibition at 0.1 µM amounted to 92% and the inhibition at 1 µM was 87%.
The corresponding values for `N#Cc1ccc(N2CCC(C(=O)Nc3ccc(N4CCC(CN5CCN(CC6CN(c7cc8c(cc7F)C(=O)N(C7CCC(=O)NC7=O)C8=O)C6)CC5)CC4)cn3)CC2)cc1C(F)(F)F` (centres unmarked) [Example 20, 1-(4-cyano-3-(trifluoromethyl)phenyl)-N-(5-(4-((4-((1-(2-(2,6-dioxopiperidin-3-yl)-6-fluoro-1,3-dioxoisoindolin-5-yl)azetidin-3-yl)methyl)piperazin-1-yl)methyl)piperidin-1-yl)pyridin-2-yl)piperidine-4-carboxamide] are 67%, 97% and 97%.
As for `N#Cc1ncc(N2CCC(F)(C(=O)Nc3ccc(N4CCC(CCN5CCN(c6ccc7c(c6)C(=O)N(C6CCC(=O)NC6=O)C7=O)CC5)CC4)cn3)CC2)cc1C(F)(F)F` (centres unmarked) [Example 90, 1-(6-cyano-5-(trifluoromethyl)pyridin-3-yl)-N-(5-(4-(2-(4-(2-(2,6-dioxopiperidin-3-yl)-1,3-dioxoisoindolin-5-yl)piperazin-1-yl)ethyl)piperidin-1-yl)pyridin-2-yl)-4-fluoropiperidine-4-carboxamide], the inhibition at 0.01 µM stood at 23%, the inhibition at 0.1 µM was 57% and the inhibition at 1 µM was found to be 82%.
`N#Cc1ccc(N2CCC(C(=O)Nc3ccc(N4CCC5(CC4)CN(C(=O)C4CCN(c6ccc7c(c6)C(=O)N(C6CCC(=O)NC6=O)C7=O)CC4)C5)cn3)CC2)cc1C(F)(F)F` (centres unmarked) [Example 129, 1-(4-cyano-3-(trifluoromethyl)phenyl)-N-(5-(2-(1-(2-(2,6-dioxopiperidin-3-yl)-1,3-dioxoisoindolin-5-yl)piperidine-4-carbonyl)-2,7-diazaspiro[3.5]nonan-7-yl)pyridin-2-yl)piperidine-4-carboxamide]: the inhibition at 0.01 µM came out at 11%, the inhibition at 0.1 µM amounted to 42% and the inhibition at 1 µM is 71%.
Regarding `N#Cc1ccc(N2CCC(C(=O)Nc3ccc(N4CC5(CCN(CC6CCN(c7ccc8c(c7)C(=O)N(C7CCC(=O)NC7=O)C8=O)CC6)CC5)C4)cn3)CC2)cc1C(F)(F)F` (centres unmarked) [Example 121, 1-(4-cyano-3-(trifluoromethyl)phenyl)-N-(5-(7-((1-(2-(2,6-dioxopiperidin-3-yl)-1,3-dioxoisoindolin-5-yl)piperidin-4-yl)methyl)-2,7-diazaspiro[3.5]nonan-2-yl)pyridin-2-yl)piperidine-4-carboxamide], the inhibition at 0.01 µM was found to be 81%, the inhibition at 0.1 µM worked out at 98% and the inhibition at 1 µM is 98%.
With `N#Cc1ccc(N2CCC(C(=O)Nc3ccc(N4CCC(CN5CCN(CC6CN(c7ccc8c(c7)C(=O)N(C7CCC(=O)NC7=O)C8=O)C6)CC5)CC4)cn3)CC2)cc1C(F)(F)F` (centres unmarked) [Example 11, 1-(4-cyano-3-(trifluoromethyl)phenyl)-N-(5-(4-((4-((1-(2-(2,6-dioxopiperidin-3-yl)-1,3-dioxoisoindolin-5-yl)azetidin-3-yl)methyl)piperazin-1-yl)methyl)piperidin-1-yl)pyridin-2-yl)piperidine-4-carboxamide], the inhibition at 0.01 µM was determined as 76%, the inhibition at 0.1 µM was 97%, the inhibition at 1 µM was determined as 97% and the inhibition at 10 µM stood at 93%.
`N#Cc1ccc(N2CCC(C(=O)Nc3ccc(N4CCC(CN5CC6(C5)CN(c5ccc7c(c5)C(=O)N(C5CCC(=O)NC5=O)C7=O)C6)CC4)cn3)CC2)cc1Cl` (centres unmarked) [Example 67, 1-(3-chloro-4-cyanophenyl)-N-(5-(4-((6-(2-(2,6-dioxopiperidin-3-yl)-1,3-dioxoisoindolin-5-yl)-2,6-diazaspiro[3.3]heptan-2-yl)methyl)piperidin-1-yl)pyridin-2-yl)piperidine-4-carboxamide]: the inhibition at 0.01 µM is 46%, the inhibition at 0.1 µM was 90%, the inhibition at 1 µM worked out at 88% and the inhibition at 10 µM came to 86%.
Take `N#Cc1ccc(N2CCC(C(=O)Nc3ccc(N4CCC(CCN5CC6(CCN(c7ccc8c(c7)CN(C7CCC(=O)NC7=O)C8=O)CC6)C5)CC4)cn3)CC2)cc1C(F)(F)F` (centres unmarked) [Example 138, 1-(4-cyano-3-(trifluoromethyl)phenyl)-N-(5-(4-(2-(7-(2-(2,6-dioxopiperidin-3-yl)-1-oxoisoindolin-5-yl)-2,7-diazaspiro[3.5]nonan-2-yl)ethyl)piperidin-1-yl)pyridin-2-yl)piperidine-4-carboxamide]: the inhibition at 0.01 µM stood at 52%, the inhibition at 0.1 µM was 95% and the inhibition at 1 µM is 90%.

For the origin of these results see patent publication US12122763B2, “Substituted piperidines for androgen receptor degradation” (UBIX THERAPEUTICS, INC., priority 2020, dated 2024).
